Laboratory results: patent US20250042983A1, “ANTI-LCN-2 ANTIBODIES AS A TREATMENT FOR EYE DISORDERS” (UNIVERSITY OF PITTSBURGH - OF THE COMMONWEALTH SYSTEM OF …, priority 2021, published 2025)
“Also recorded” adds a separate entry of the source.

Key:
[1] = tested on: ARPE19 cells; assay: Estimation of autophagosome number in RPE cells (GFP-RFP-LC3 puncta); type: cell-based, human; settings: chloroquine as positive control
Method: The cells were then treated with 10^7 vg/ml of an Ad-LCN-2 construct (as described above) for 48 h. […] Confocal images were acquired at 60× using Nikon NIS Elements v5.3(Nikon, Melville NY). 3D spot detection was used to segment positive structures for size, shape and intensity for RFP/GFP, and RFP only puncta were identified.

[2] = tested on: Cryba1 KO RPE explants; assay: Rescue experiments in RPE explants exposed to FAC and Ad-LCN-2 (Western blot, ROS); type: cell-based, mouse; settings: pre-treatment, then FAC and Ad-LCN-2
From the text: RPE explant culture was done as previously described (Shang et al., Commun. Biol., 4(1): 850 (2021)). Briefly, eyeballs were enucleated from WT, Cryba1 KO, Sting KO or Sting^GT mice respectively, immediately after euthanasia by putting in CO2 chamber. The posterior eyecups were cut into four petals after the removal of anterior segments and the neural retina was carefully removed. The resulting RPE-Choroid-Sclera (RCS) complexes were flattened onto PVDF membranes with the RPE cells facing up and cultured as previously described. For experiments involving iron regulation, RPE explants from different genotypes were cultured in presence of ferric ammonium citrate (FAC, Sigma Aldrich, RES20400-A702X) at a dose of 250 μM for 72 h (Hadziahmetovic et al., Am. J Pathol., 179(1): 335-48 (2011)); Chothe et al., Biochem. Biophys. Res. Commun., 405(2): 244-9 (2011)), Adenovirus-LCN-2 (10^7 vg/ml, Ad-LCN-2, Vector Biolabs, ADV-263329) construct for 48 h and with or without chloroquine (ChQ; Sigma Aldrich, C6628-25G), a lysosomal blocker at a dose of 50 μM for the last 6 h of the experimental duration. For rescue experiments, Cryba1 KO explants were cultured and pre-treated with either Def (100 μM for 24 h; Sigma Aldrich, D9533-1G) or Sting inhibitor (H-151; 1 μM for 6 hours; Invitrogen, inh-h151) which was followed by FAC and Ad-LCN-2 treatment as explained above.
Whole cells lysates were made from RPE cells harvested from Cryba1^fl/fl or Cryba1 cKO mice or from in vitro RPE flat mount cultures from different experimental conditions as explained previously. The lysates were either made in 1×RIPA buffer (EMD Milipore, Cat #20-188) or NATIVE lysis buffer (Abcam, ab156035) containing 0.1% of a protease inhibitor cocktail (Sigma Aldrich, 13786) and 0.1% phosphatase inhibitor cocktail (Sigma Aldrich, P0044-5ML). The protein extracts were subjected to quantification by using the Pierce BCA Protein Assay Kit (Thermo Fisher, 23225). The RIPA protein samples were mixed with 4× protein sample buffer (Life Technologies, NP0007) containing 5% 2-mercaptoethanol (Sigma Aldrich, M6256) and heated at 95° C. for 10 min to denature. The native protein samples were mixed with NATIVE sample buffer (Bio-Rad, 1610738) at a 1:1 ratio. The native samples were loaded on NATIVE-PAGE gels (Thermo Fisher, BN1002BOX) and run using NATIVE-PAGE running buffer (Thermo Fisher, BN2001). Samples were loaded onto a 4-12% Bis-Tris Nu-PAGE gel (Invitrogen, NP0323BOX) and run with MES buffer (Invitrogen, NP0002). Proteins were transferred to nitrocellulose membranes (Invitrogen, 1B23001), which were then blocked in 5% blocking grade skim milk (Bio-Rad, 170-6404) or 5% BSA (Sigma Aldrich, A3912-50G) for phosphorylated proteins. The membranes were incubated with the appropriate primary antibody overnight followed by horseradish peroxidase-conjugated anti-rabbit (KPL, 074-1506) or anti-mouse (KPL, 074-1806) secondary antibodies for 1 h at RT. A chemiluminescence development technique was utilized to develop the blots (GE Healthcare, RPN2209) and the blots were imaged using the Azure imaging system (Azure Biosystems, USA). […]
The ROS generation in 10-month-old RPE cells from Cryba1^fl/fl and Cryba1 cKO mice was evaluated as described previously (Ghosh et al., Cell Signal., 68: 109521 (2020)). […]

[3] = tested on: ARPE19 cells; assay: Live cell imaging of lipid peroxidation with liperfluo dye; type: cell-based, human
Method: To assess the levels of lipid peroxidation in RPE cells, ARPE19 cells were cultured on four chambered dishes (VWR, 627871) and then either left untreated (control) or treated with 250 μM of ferric ammonium citrate (FAC) for 72 h to mimic the increased iron levels in vivo, followed by Ad-LCN-2 (10^7 vg/ml) for the last 48 h and chloroquine (50 μM) for the last 6 h of the experimental duration respectively. RSL3 (3 μM, overnight; Cayman Chemicals, 19288) was used as a positive control for ferroptosis activation. The clone #6 monoclonal antibody targeting LCN-2 (mAb; 1 μg/ml, 24 h) antibody and 25 μM (overnight) of ferrostatin-1 (Cayman Chemicals, 17729) were added to the culture to rescue ferroptosis induction in the RPE cells. Prior to imaging, the cells were incubated with Liperfluo (10 μM, Fisher Scientific, L24810) for 30 min, and washed twice with PBS before replacing the original media in each chamber. […] Liperfluo was excited using a diode-pumped light engine (SPECTRA X, Lumencor) and detected using an Prime95b sCMOS camera (Photometrics) and excitation and emission filters from Chroma. […] Data was collected and liperfluo emissions were analyzed using NIS Elements (Nikon, Inc. Melville, NY).

[4] = biological target: T1, Human ATG4B (Homo sapiens, UniProt Q9Y4P1); assay: Cell free ATG4B activity assay (LC3-GST cleavage); type: biochemical; settings: ATG4B 0.5 μg/ml, LCN-2 1.0 μg/ml, 15 minutes; listed as human recombinant LCN-2
T1 construct: purchased Abcam ab188707
T1 sequence (Q9Y4P1 1-393): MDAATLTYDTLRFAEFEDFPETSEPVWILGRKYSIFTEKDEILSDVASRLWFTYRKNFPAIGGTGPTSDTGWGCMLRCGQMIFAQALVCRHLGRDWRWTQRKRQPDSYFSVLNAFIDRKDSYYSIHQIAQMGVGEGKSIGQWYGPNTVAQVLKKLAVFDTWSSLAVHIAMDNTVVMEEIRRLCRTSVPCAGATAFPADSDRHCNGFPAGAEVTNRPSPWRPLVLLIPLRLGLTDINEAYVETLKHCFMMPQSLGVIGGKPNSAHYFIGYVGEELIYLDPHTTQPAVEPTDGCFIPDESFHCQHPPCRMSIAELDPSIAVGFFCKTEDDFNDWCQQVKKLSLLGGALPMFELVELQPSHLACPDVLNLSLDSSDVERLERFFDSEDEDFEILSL
Method: ATG4B activity assay was measured by incubating recombinant human LC3-GST (Enzo, BML-UW1155-0500) at a dose of 20 μg/ml with 0.5 μg/ml of human ATG4B (Abcam, ab188707) with or without human LCN-2 (R&D Systems, 1757-LC-050) at a dose of 1 μg/ml for 15 min at room temperature (Pengo et al., Nat. Commun., 8(1): 294 (2017)). The protein samples were then mixed with 4× protein sample buffer (Life Technologies, NP0007) containing 5% 2-mercaptoethanol (Sigma Aldrich, M6256) and heated at 95° C. for 10 min to denature. The samples were then subjected to Western blot using the anti-GST primary antibody (Cell Signaling USA, 2622S) as previously explained (Ghosh et al., J. Pathol., 241(5): 583-588 (2017); Shang et al., Aging Cell, 16(2): 349-359 (2017)).

[5] = biological target: T1, Human ATG4B; assay: Thermal shift assay with sypro orange; type: binding; settings: ATG4B incubated with human LCN-2, vs ATG4B only
Method: (§1) Changes in melting temperature (Tm) was assessed to evaluate the binding propensity of LCN-2 and ATG4B. Human ATG4B (Abcam, ab188707) at a dose of 0.5 μg/ml with or without 1 μg/ml of human LCN-2 (R&D Systems, 1757-LC-050) and 5 μM sypro orange (Thermo Fisher, S-6650) were incubated for 30 min at 4° C. The change in Tm was evaluated in a quantitative PCR machine (ABI Systems, USA) using a previously published method (Huynh et al., Curr. Protoc. Protein Sci., 79: 28.9.1-28.9.14 (2015); Layton et al., Protein Sci., 20(8): 1439-50 (2011)).

[6] = tested on: ATG4B activity; assay: GFP-LC3-RFP-ΔLC3 construct and flow cytometry (ATG4B-mediated LC3 processing); type: cell-based, human; settings: recombinant LCN-2 1.0 μg/ml for 24 h; relative to control
Method: ARPE19 cells were cultured up to 60% confluency and then transfected with the GFP-LC3-RFP-ΔLC3 construct (Addgene, 84572), to assess ATG4B activity, using the manufacturer's protocol of the Lipofectamine 3000 Transfection Reagent (Thermo Fisher, L3000008) for 72 h (Ghosh et al., Commun. Biol., 4(1): 248 (2021)). The transfection efficiency was confirmed by visualizing the GFP and RFP signals in the transfected cells using a fluorescence microscope. This was followed by infection with an Ad-LCN-2 construct (as described above) for 48 h and treatment with recombinant human LCN-2 protein (R&D Systems, 1757-LC-050) at a dose of 1 μg/ml for 24 h in separate experiments. The cells were then scraped off the plates and were analyzed by flow cytometry using the LSR-II platform ([…]). The results were analyzed using the FlowJo software (v10.8) and the data from each group was represented as the ratio of median GFP fluorescence to RFP fluorescence (Kaizuka et al., Mol. Cell, 64(4): 835-849 (2016); Ghosh et al., Commun. Biol., 4(1): 248 (2021)).

[7] = biological target: T2, recombinant human ATG4B (Abcam, ab188707) (human, UniProt Q9Y4P1 1-393, limits assumed); assay: thermal shift assay with sypro orange
T2 construct: Bought recombinant protein; also called human recombinant ATG4B; Autophagy Related 4B Cysteine Peptidase
T2 sequence (looked up): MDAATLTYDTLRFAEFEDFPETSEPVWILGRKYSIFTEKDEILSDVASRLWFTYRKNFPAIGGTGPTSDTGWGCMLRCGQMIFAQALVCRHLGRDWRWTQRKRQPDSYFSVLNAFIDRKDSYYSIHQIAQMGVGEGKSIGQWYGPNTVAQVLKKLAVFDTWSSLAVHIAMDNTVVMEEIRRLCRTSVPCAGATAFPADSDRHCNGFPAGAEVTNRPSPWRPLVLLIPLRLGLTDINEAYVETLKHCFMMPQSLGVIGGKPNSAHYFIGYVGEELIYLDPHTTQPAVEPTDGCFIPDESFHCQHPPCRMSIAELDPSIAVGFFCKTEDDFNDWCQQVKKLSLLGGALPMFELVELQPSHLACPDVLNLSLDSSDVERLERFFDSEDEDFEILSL
Method: FIGS. 2C-2D are line (2C) and dot plot (2D) graphs showing the results of a thermal shift assay. […] The melting temperature is reflective of the change in sypro orange fluorescence (arbitrary units) which was added (5 μM) to each reaction mixture. n=4. All values are Mean±SD. Significant change is indicated by *P<0.05.
as §1

With CCN(CC)CCCC(C)Nc1ccnc2cc(Cl)ccc12 (stereo not shown) [Chloroquine, chloroquine] the “number of puncta (autophagosomes)” value [1] was “highly increased puncta”.

For CCc1ccc(NC(=O)Nc2c[nH]c3ccccc23)cc1 [Clone H-151], the “STING levels (Western blot)” value [2] was “such changes were not observed”, the “cGAS levels (Western blot)” value [2] was “such changes were not observed” and the “NLRP3 levels (Western blot)” value ([2]; vs vehicle (DMSO)) was “significantly reduced; also recorded: rescued the levels of NLRP3 inflammasome expression”. For the same molecule, the “SOD1 levels (Western blot)” value ([2]; vs vehicle (DMSO)) was “decreased” and the ROS levels ([2]; vs vehicle, listed as STING inhibitor) was “decreased; also recorded: rescued”.

COC(=O)c1ccc([C@@H]2c3[nH]c4ccccc4c3C[C@@H](C(=O)OC)N2C(=O)CCl)cc1 [RSL3, reference compound] was tested, and the “lipid peroxidation (liperfluo emission intensity)” value ([3]; RSL3 alone as positive control, compared to control) was “induced lipid peroxidation; also recorded: higher iperfluo emission intensity”.

With CCOC(=O)c1ccc(NC2CCCCC2)c(N)c1 [ferrostatin-1, reference compound] the “lipid peroxidation (liperfluo emission intensity)” value ([3]; ferrostatin-1 pre-treatment of FAC+Ad-LCN-2+Chloroquine (FLC) treated cells) was “could rescue the lipid peroxidation; also recorded: abrogated the changes”.

B1: human recombinant LCN-2 (R&D Systems, 1757-LC-050) (other)
chain: QDSTSDLIPAPPLSKVPLQQNFQDNQFQGKWYVVGLAGNAILREDKDPQKMYATIYELKEDKSYNVTSVLFRKKKCDYWIRTFVPGCQPGEFTLGNIKSYPGLTSYLVRVVSTNYNQHAMVFFKKVSQNREYFKITLYGRTKELTSELKENFIRFSKSLGLPENHIVFPVPIDQCIDG
notes: Bought protein; also called human LCN-2 protein; recombinant human LCN-2
In the case of B1, the “ATG4B activity (GST cleavage from LC3-GST, Western blot)” value [4] is reported as “Decreased GST cleavage; also recorded: could inhibit LC3 processing through the inhibition of Atg4b activity”, the “melting temperature (Tm) shift of ATG4B” value ([5]; listed as human LCN-2 protein) is reported as “increase in melting temperature” and the “melting temperature (Tm) shift of ATG4B” value ([5]; listed as human recombinant LCN-2) is reported as “consistent with binding between the two proteins”. For the same molecule, the “GFP/RFP ratio (LC3 processing/lipidation)” value [6] was “GFP fluorescence was increased; also recorded: increase in the GFP/RFP ratio” and the binding result [7] was “binds”.
